Data from PubChem BioAssay (NCI).
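The compound was tested at five concentrations on cells cultured in 96-well plates, with a 48-hour exposure period. The concentration for full growth arrest is given as TGI.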

Columns and labels:
Assay in all cases: NCI-60 cell line screen, 48 h
DLD-1 colon = test system: DLD-1 colon
SNB-78 CNS = test system: SNB-78 CNS
DMS 273 small cell lung = test system: DMS 273 small cell lung
KM20L2 colon = test system: KM20L2 colon
RXF-631 renal = test system: RXF-631 renal
LXFL 529 NSCLC = test system: LXFL 529 NSCLC
HOP-18 NSCLC = test system: HOP-18 NSCLC
XF 498 CNS = test system: XF 498 CNS
DMS 114 small cell lung = test system: DMS 114 small cell lung
M19-MEL melanoma = test system: M19-MEL melanoma
SK-OV-3 ovarian = test system: SK-OV-3 ovarian
HS 578T breast = test system: HS 578T breast
UACC-62 melanoma = test system: UACC-62 melanoma

Structure (SMILES)	TGI (DLD-1 colon) [µM]	TGI (SNB-78 CNS) [µM]	TGI (DMS 273 small cell lung) [µM]	TGI (RXF-631 renal) [µM]	TGI (LXFL 529 NSCLC) [µM]	TGI (HOP-18 NSCLC) [µM]	TGI (XF 498 CNS) [µM]	TGI (DMS 114 small cell lung) [µM]	TGI (SK-OV-3 ovarian) [µM]	TGI (HS 578T breast) [µM]	TGI (UACC-62 melanoma) [µM]	also measured
ICC1CCCO1 (configuration not stated)	> 100	> 100	> 100	> 100	> 100	> 100	> 100	> 100	–	–	–	TGI (KM20L2 colon): > 100 µM
O=C=C=P(c1ccccc1)(c1ccccc1)c1ccccc1	> 100	> 100	> 100	> 100	> 100	> 100	89.7	> 100	> 100	–	–	TGI (M19-MEL melanoma): > 100 µM
CCOP(=O)(C/C=C/Cn1ncc(=O)[nH]c1=O)OCC	–	–	–	–	–	–	–	–	–	> 100	–	–
CC1(C)OCC(CO)(CO)CO1	–	–	–	–	–	–	–	–	> 100	> 100	–	–
O=Cc1cn(CCCCCCCCn2cc(C=O)c3ccccc32)c2ccccc12	–	–	–	–	–	–	–	–	> 10	> 10	> 10	–
c1ccc(C2=NN2c2ccccc2)cc1	–	–	–	–	–	–	–	–	> 100	–	> 100	–
